Assay results from patent publication US20260062426A1, “CYCLIN DEPENDENT KINASE DEGRADERS AND METHODS OF USE THEREOF” (Differentiated Therapeutics Inc, priority 2023, published 2026).

Legend:
Assay type in all cases: cell-based
[1] = biological target: T1, CDK2 (Homo sapiens, UniProt P24941); test: CDK2 HIBIT PQ (protein quantification), degradation; details: for CDK2 HIBIT PQ Max (%): Max = Maximum; for DC50: PQ = Protein Quantification
T1 construct: host or cells: HEK293
How it was run: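 After overnight incubation at 37° C and 5% CO2 in 384-well plates (1.6×10^5 cells/well, 50 uL, DMEM with 10% FBS), HEK293 cells with HiBiT-tagged CDK2 were treated with compound for 6 hours. Detection used 20 μL of Nano-Glo HiBiT lytic reagent with LgBiT protein, 20 minutes of shaking at room temperature and an EnVision reading, with 0.1% DMSO as high control and medium alone as low control. These readings were the basis for DC50 and maximal degradation.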

[2] = biological target: T2, CDK9 (Homo sapiens, UniProt P50750); test: CDK9 HIBIT PQ (protein quantification), degradation; details: for Dmax / CDK9 HIBIT PQ Max (%): Max = Maximum; for DC50: PQ = Protein Quantification
T2 construct: host or cells: HEK293
How it was run: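 CDK9 protein was read by HiBiT assay in treated HEK293 cells carrying HiBiT-tagged CDK9, seeded at 1.6×10^5 cells/well in 50 uL in 384-well plates and incubated overnight at 37° C and 5% CO2. Controls were 0.1% DMSO-treated cells (high) and culture medium only (low). Maximal degradation, Dmax and DC50 were calculated from these readings.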

[3] = biological target: T3, CCNE1 (Homo sapiens, UniProt P24864+P24941); test: CCNE1 HIBIT PQ (protein quantification), degradation; details: for CCNE1 HIBIT PQ Max (%): Max = Maximum; for DC50: PQ = Protein Quantification
T3 construct: host or cells: HEK293
How it was run: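 HEK293 cells carrying HiBiT-tagged CCNE1 were grown in EMEM with 10% FBS and seeded in 384-well plates at 1.6×10⁵ cells/well in 50 uL, then incubated overnight at 37° C and 5% CO₂. Compound treatment lasted 6 hours, and CCNE1 protein was then measured with a HiBiT assay. High control was 0.1% DMSO-treated cells and low control was culture medium only. Maximal degradation and DC50 were derived from these readings.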

T2 sequence (P50750 whole entry): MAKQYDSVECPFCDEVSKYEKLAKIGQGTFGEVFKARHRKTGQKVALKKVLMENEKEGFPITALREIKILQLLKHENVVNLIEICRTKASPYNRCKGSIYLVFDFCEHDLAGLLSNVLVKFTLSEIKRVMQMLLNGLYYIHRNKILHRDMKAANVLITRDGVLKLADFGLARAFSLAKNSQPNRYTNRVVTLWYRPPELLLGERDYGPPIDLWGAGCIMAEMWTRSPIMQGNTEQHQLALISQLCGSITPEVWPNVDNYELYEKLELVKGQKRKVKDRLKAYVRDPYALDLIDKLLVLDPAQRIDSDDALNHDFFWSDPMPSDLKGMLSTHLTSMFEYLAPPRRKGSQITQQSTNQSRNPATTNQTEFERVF

CDK2 HIBIT PQ Max (%) [1] [%] | DC50 [1] [nM] | Dmax [2] [%] | DC50 [2] [nM] | CCNE1 HIBIT PQ Max (%) [3] [%] | DC50 [3] [nM] | CDK9 HIBIT PQ Max (%) [2] [%] | Structure (SMILES)
91 | 0.1 | 83 | 1.13 | 76 | 0.51 |  | Cc1c(S(=O)(=O)N(C)CCCN2CCC(c3ccc4c(c3)n(C)c(=O)n4C3CCC(=O)NC3=O)CC2)ccc(Nc2nc3c(OC(C)C)c(-c4cn[nH]c4)ncn3n2)c1F (racemic) [Compound 55, rac-(R)-N-(3-(4-(1-(2,6-dioxopiperidin-3-yl)-3-methyl-2-oxo-2,3-dihydro-1H-benzo[d]imidazol-5-yl)piperidin-1-yl)propyl)-3-fluoro-4-((8-isopropoxy-7-(1H-pyrazol-4-yl)-[1,2,4]triazolo[1,5-c]pyrimidin-2-yl)amino)-N,2-dimethylbenzenesulfonamide]
6 |  | 2 |  | 0 |  |  | CC(C)Oc1c(-c2cn[nH]c2)ncn2nc(Nc3ccc(S(=O)(=O)N(C)CCCN4CCC(c5cccc6c5n(C)c(=O)n6C5CCC(=O)N(C)C5=O)CC4)cc3F)nc12 (racemic) [Compound 28]
90 | 2.6 |  | 10.6 | 77 | 13.9 | 82 | CC(C)Oc1c(-c2cn[nH]c2)ncn2nc(Nc3ccc(S(=O)(=O)c4cccc(C(C)N5CCC(c6ccc7c(N8CCC(=O)NC8=O)nn(C)c7c6)CC5)c4)cc3F)nc12 (single isomer, unassigned) [Compound 101]
92 | 1.58 | 91 | 10.2 | 81 | 7.36 |  | CC(C)Oc1c(-c2cn[nH]c2)ncn2nc(Nc3ccc(S(=O)(=O)c4cccc(CN5CCC(c6ccc7c(N8CCC(=O)NC8=O)nn(C)c7c6)CC5)c4)cc3F)nc12 [Compound 8, 1-(6-(1-(3-((3-fluoro-4-((8-isopropoxy-7-(1H-pyrazol-4-yl)-[1,2,4]triazolo[1,5-c]pyrimidin-2-yl)amino)phenyl)sulfonyl)benzyl)piperidin-4-yl)-1-methyl-1H-indazol-3-yl)dihydropyrimidine-2,4(1H,3H)-dione]
70 | 0.24 | 74 | 1.12 | 33 |  |  | CC(C)Oc1c(-c2cn[nH]c2)ncn2nc(Nc3ccc(S(=O)(=O)N4CCC(CN5CCC(c6cccc7c6n(C)c(=O)n7C6CCC(=O)NC6=O)CC5)CC4)cc3F)nc12 (racemic) [Compound 14, rac-(R)-3-(4-(1-((1-((3-fluoro-4-((8-isopropoxy-7-(1H-pyrazol-4-yl)-[1,2,4]triazolo[1,5-c]pyrimidin-2-yl)amino)phenyl)sulfonyl)piperidin-4-yl)methyl)piperidin-4-yl)-3-methyl-2-oxo-2,3-dihydro-1H-benzo[d]imidazol-1-yl)piperidine-2,6-dione]
92 | 0.3 | 88 | 5.2 | 89 | 1.55 |  | CC(C)Oc1c(-c2cn[nH]c2)ncn2nc(Nc3ccc(S(=O)(=O)N4CCCC(CN5CCC(c6ccc7c(N8CCC(=O)NC8=O)nn(C)c7c6)CC5)C4)cc3F)nc12 (single isomer, unassigned) [Compound 94]
77 | 0.7 | 56 | 5.87 | 56 | 1.22 |  | CC(C)Oc1c(-c2cn[nH]c2)ncn2nc(Nc3ccc(S(=O)(=O)N4CCCC(CN5CCC(c6ccc7c(N8CCC(=O)NC8=O)nn(C)c7c6)CC5(C)C)C4)cc3F)nc12 (stereo not drawn) [Compound 93, 1-(6-(1-((1-((3-fluoro-4-((8-isopropoxy-7-(1H-pyrazol-4-yl)-[1,2,4]triazolo[1,5-c]pyrimidin-2-yl)amino)phenyl)sulfonyl)piperidin-3-yl)methyl)-2,2-dimethylpiperidin-4-yl)-1-methyl-1H-indazol-3-yl)dihydropyrimidine-2,4(1H,3H)-dione]
90 | 0.3 | 82 | 2.25 | 76 | 0.62 |  | Cc1cc(S(=O)(=O)N(C)CCCN2CCC(c3ccc4c(c3)n(C)c(=O)n4C3CCC(=O)NC3=O)CC2)cc(F)c1Nc1nc2c(OC(C)C)c(-c3cn[nH]c3)ncn2n1 (racemic) [Compound 57]
88 | 23.4 | 27 |  | 52 | 100 |  | CC(C)Oc1c(-c2cn[nH]c2)ncn2nc(Nc3ccc(S(=O)(=O)c4cccc(C[C@H]5C[C@H](c6ccc7c(c6)CN([C@H]6CCC(=O)NC6=O)C7=O)C5)c4)cc3F)nc12 (stereo in doubt) [Compound 82, (S)-3-(5-((1s,3S)-3-(3-((3-fluoro-4-((8-isopropoxy-7-(1H-pyrazol-4-yl)-[1,2,4]triazolo[1,5-c]pyrimidin-2-yl)amino)phenyl)sulfonyl)benzyl)cyclobutyl)-1-oxoisoindolin-2-yl)piperidine-2,6-dione]
87 | 0.2 | 67 | 2.64 | 61 | 0.74 |  | CC(C)Oc1c(-c2cn[nH]c2)ncn2nc(Nc3ccc(S(=O)(=O)N(C)CCCN4CCC(c5ccc6c(c5)n(C)c(=O)n6C5CCC(=O)NC5=O)CC4)c4ccoc34)nc12 (racemic) [Compound 53]
93 | 1.5 | 82 | 12 | 80 | 9.64 |  | CC(C)Oc1c(-c2cn[nH]c2)ncn2nc(Nc3ccc(S(=O)(=O)c4cccc(C(C)N5CCC(c6ccc7c(N8CCC(=O)NC8=O)nn(C)c7c6)CC5)c4)cc3F)nc12 (racemic) [Compound 85]

The next lines start with the compound.

Structure (SMILES) | CDK2 HIBIT PQ Max (%) [1] [%] | DC50 [1] [nM] | Dmax [2] [%] | DC50 [2] [nM] | CCNE1 HIBIT PQ Max (%) [3] [%] | DC50 [3] [nM] | CDK9 HIBIT PQ Max (%) [2] [%]
CC(C)Oc1c(-c2cn[nH]c2)ncn2nc(Nc3ccc(S(=O)(=O)N4CCCC(CN5CCC(c6ccc7c(N8CCC(=O)NC8=O)nn(C)c7c6)C(C)C5)C4)cc3F)nc12 (stereo not drawn) [Compound 92] | 88 | 1.7 | 77 | 21.7 | 82 | 4.11 | 
CC(C)Oc1c(-c2cn[nH]c2)ncn2nc(Nc3ccc(S(=O)(=O)c4cccc(CN5CCN(c6ccc7c(N8CCC(=O)NC8=O)nn(C)c7c6)CC5)c4)cc3F)nc12 [Compound 38] | 96 | 2.3 | 63 | 24 | 55 | 5.76 | 
CC(C)Oc1c(-c2cn[nH]c2)ncn2nc(Nc3ccc(S(=O)(=O)c4cccc(N5CCC(CN6CCN(c7ccc8c(c7)CN(C7CCC(=O)NC7=O)C8=O)CC6)CC5)c4)cc3F)nc12 (racemic) [Compound 22] | 93 | 1.7 | 97 | 16.1 | 71 | 10.9 | 
CC(C)Oc1c(-c2cn[nH]c2)ncn2nc(Nc3ccc(S(=O)(=O)c4cccc(C(C)N5CCN(c6ccc7c(N8CCC(=O)NC8=O)nn(C)c7c6)CC5)c4)cc3F)nc12 (single isomer, unassigned) [Compound 98] | 95 | 2.3 | 78 | 34.8 | 67 | 12.7 | 
CC(C)Oc1c(-c2cn[nH]c2)ncn2nc(Nc3ccc(S(=O)(=O)c4cccc(C(C)N5CCN(c6ccc7c(N8CCC(=O)NC8=O)nn(C)c7c6)CC5)c4)cc3F)nc12 (single isomer, unassigned) [Compound 99] | 94 | 3 |  | 37.3 | 52 | 10.2 | 64
CC(C)Oc1c(-c2cn[nH]c2)ncn2nc(Nc3ccc(S(=O)(=O)c4cccc(CN5CCN(c6ccc7c(N8CCC(=O)NC8=O)nn(C)c7c6)C(C)C5)c4)cc3F)nc12 (racemic) [Compound 41] | 94 | 3.9 | 57 | 28 | 41 |  | 
CC(C)Oc1c(-c2cn[nH]c2)ncn2nc(Nc3ccc(S(=O)(=O)c4cccc(CN5CCN(c6ccc7c(N8CCC(=O)NC8=O)nn(C)c7c6)CC5C(C)C)c4)cc3F)nc12 (racemic) [Compound 42, rac-(R)-1-(6-(4-(3-((3-fluoro-4-((8-isopropoxy-7-(1H-pyrazol-4-yl)-[1,2,4]triazolo[1,5-c]pyrimidin-2-yl)amino)phenyl)sulfonyl)benzyl)-3-isopropylpiperazin-1-yl)-1-methyl-1H-indazol-3-yl)dihydropyrimidine-2,4(1H,3H)-dione] | 95 | 14.9 | 61 | 306 | 67 | 78.9 | 
CC(C)Oc1c(-c2cn[nH]c2)ncn2nc(N[C@H]3CCN(S(=O)(=O)c4cccc(CN5CCN(c6ccc7c(N8CCC(=O)NC8=O)nn(C)c7c6)C(C)C5)c4)C[C@H]3C)nc12 (stereo partly drawn) [Compound 49] | 98 | 2.2 | 104 | 11.6 | 96 | 9.43 | 
